Assay results published in patent US20040202736A1, “Method of ameliorating side-effects of SERMs” (Pharmaton S.A., priority 2003, published 2004).
Entries after “also recorded” stand apart in the source; their conditions may differ.

Legend:
[1] = test system: vasomotor symptoms of patients treated with tamoxifen; assay: Separate uncontrolled experiences to control vasomotor symptoms of patients treated with tamoxifen; assay type: in vivo, women; details: given to patients treated with tamoxifen
[2] = test system: breast cancer survivors women; assay: Clinical practice: 1,600 breast cancer survivors treated with tamoxifen, adverse effects; assay type: in vivo
Text: The improvements in recurrence-free survival and in overall survival have been between the ranges reported by the published literature. However, into the total treated group, we have found only one case of endometrial cancer, well differentiated and of small size (table 2).
Many of these women had recently stopped HRT, at the time the diagnosis of breast cancer was made.

[3] = test system: hot flushes among breast cancer survivors under tamoxifen adjuvant therapy
[4] = test system: invasive breast cancer; details: cited from earlier work
[5] = usual-care n = 46 (six months), intervention n = 90 (end of study), tamoxifen 20 mg/day, BNO 1055 20 mg twice a day
[6] = usual-care n = 46, intervention n = 90

Compound: CC(=O)[C@H]1CC[C@H]2[C@@H]3CCC4=CC(=O)CC[C@]4(C)[C@H]3CC[C@]12C [progesterone]
- control of vasomotor symptoms / severe hot flushes [1]: very unsatisfactory results; also recorded: failed to reach a satisfactory control

Compound: Clc1cccc(Cl)c1N=C1NCCN1 [clonidine]
- control of vasomotor symptoms / severe hot flushes [1]: very unsatisfactory results; also recorded: failed to reach a satisfactory control

Compound: Vitamin E
- control of vasomotor symptoms / severe hot flushes [1]: very unsatisfactory results; also recorded: failed to reach a satisfactory control

Compound: CC/C(=C(\c1ccccc1)c1ccc(OCCN(C)C)cc1)c1ccccc1 [Tamoxifen, Z-2-[4-(1,2-diphenyl-1-butenyl)phenoxy]-N,N-dimethyl-ethylamine]
- patients who reported hot flushes ([2]; postmenopausal patients, tamoxifen 20 mg/day): 25%
- patients who reported hot flushes ([2]; premenopausal women, mostly severe, tamoxifen 20 mg/day): up to 74%
- withdrawal ([2]; tamoxifen 20 mg/day): < 5%
- cases of endometrial cancer ([2]; total treated group (1,600), well differentiated and of small size): one
- decline of bimonthly reported numbers of hot flushes from baseline ([3]; baseline vs six months of tamoxifen adjuvant therapy, severe or moderate hot flushes, not significant, P=0.71): 5 to 9%
- minor adverse events, number ([3]; during the study): seven
- serious events ([3]; during the study): No serious events
- Hot Flushes Severe, number of patients [3, 5]: 34
- Hot Flushes Severe, proportion of patients [3, 5]: 73.9%
- Hot Flushes Moderate, number of patients [3, 6]: 12
- Hot Flushes Moderate, proportion of patients [3, 6]: 26.1%
- reduction of the risk of invasive breast cancer ([4]; 20 mg/day, 69 months of follow-up): 49%
- effect on ER-negative tumors ([4]; 20 mg/day): no effect
- incidence of adverse events, including endometrial cancer ([4]; women younger than 50): no increased incidence
